Results as given in the supplement of paper PMC4862054.

Experiments:
Details in all cases: incubation time: 72 h
CAL-85-1 [1] = test: normalised viability (% of control), CellTiter-Blue; higher = more viable cells (about 100 = DMSO control)
Description: (§1)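 DSRT, CellTiter-Blue viability, 72 h incubation. Signal is normalised to DMSO and benzethonium chloride controls. Value is the normalised response at dose 6.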

HDQ-P1 [2] = test: as above
Description: as §1

MDA-MB-453 [3] = test: as above
Description: as §1

DU-4475 [4] = test: as above
Description: as §1

CAL-148 [5] = test: as above
Description: as §1

CAL-51 [6] = test: as above
Description: as §1

CAL-85-1 [7] = test: as above; remark: listed apart in the source
Description: (§2)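 DSRT, CellTiter-Blue viability, 72 h incubation. Signal is normalised to DMSO and benzethonium chloride controls. Value is the normalised response at dose 7.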

HDQ-P1 [8] = test: as above; remark: listed apart in the source
Description: as §2

MDA-MB-453 [9] = test: as above; remark: listed apart in the source
Description: as §2

DU-4475 [10] = test: as above; remark: listed apart in the source
Description: as §2

CAL-148 [11] = test: as above; remark: listed apart in the source
Description: as §2

CAL-51 [12] = test: as above; remark: listed apart in the source
Description: as §2

CAL-85-1 [13] = test: normalised response (% of control), CellTiter-Glo; higher = more viable cells (100 = DMSO, 0 = benzethonium chloride kill control)
In short: (§3)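 Two readouts were taken after 72 h: CellTox Green fluorescence (485/520 nm) first, then CellTiter-Glo luminescence after 10 min at room temperature. Breast cancer cell lines had been seeded as 20 µl suspension into 384-well plates holding compound at 5 concentrations in 10-fold steps across a compound-specific 10,000-fold range. Each value is a normalised signal at a single concentration, with plates scaled to 0.1 % DMSO (100) and a positive kill control (0).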

HDQ-P1 [14] = test: as above
In short: as §3

MDA-MB-453 [15] = test: as above
In short: as §3

BT-474 = test: as above
In short: as §3

HCC1599 = test: as above
In short: as §3

DU-4475 [16] = test: as above
In short: as §3

HCC1143 = test: as above
In short: as §3

Hs578T = test: as above
In short: as §3

CAL-120 = test: as above
In short: as §3

HCC1937 = test: as above
In short: as §3

MDA-MB-468 = test: as above
In short: as §3

CAL-148 [17] = test: as above
In short: as §3

CAL-51 [18] = test: as above
In short: as §3

MDA-MB-436 = test: as above
In short: as §3

MCF-10A = test: as above
In short: as §3

MFM-223 = test: as above
In short: as §3

MDA-MB-231 = test: as above
In short: as §3

SK-BR-3 = test: as above
In short: as §3

BT-549 = test: as above
In short: as §3

What does the source list for `CC(=O)O[C@H]1C(=O)[C@@]2(C)[C@H]([C@H](OC(=O)c3ccccc3)[C@]3(O)C[C@H](OC(=O)[C@H](O)[C@@H](NC(=O)c4ccccc4)c4ccccc4)C(C)=C1C3(C)C)[C@]1(OC(C)=O)CO[C@@H]1C[C@@H]2O` [Paclitaxel] (30 nM)?
normalised viability (CAL-85-1 [1]): 32.6%; normalised viability (HDQ-P1 [2]): 33.7%; normalised viability (MDA-MB-453 [3]): 26.1%; normalised viability (DU-4475 [4]): 39.6%; normalised viability (CAL-148 [5]): 20.8%; normalised viability (CAL-51 [6]): 38.8%

For `CC(C)(C)c1cc(NC(=O)Nc2ccc(-c3cn4c(n3)sc3cc(OCCN5CCOCC5)ccc34)cc2)no1` [Quizartinib] (30 nM), which normalised viability (CAL-85-1 [1]) is on record?
Its normalised viability is 97.2%.

And the normalised viability (HDQ-P1 [2])?
The normalised viability was 53.4%.

And the normalised viability (MDA-MB-453 [3])?
Its normalised viability is 102%.

And the normalised viability (DU-4475 [4])?
The normalised viability was 109%.

And the normalised viability (CAL-148 [5])?
The normalised viability was 103%.

What about the normalised viability (CAL-51 [6]) of the same compound?
Its normalised viability is 101%.

For `COc1cc(Nc2ncc(F)c(Nc3ccc4c(n3)NC(=O)C(C)(C)O4)n2)cc(OC)c1OC` [R406] (300 nM), which normalised viability (CAL-85-1 [1]) is on record?
The normalised viability was 98.3%.

What about the normalised viability (HDQ-P1 [2]) of the same compound?
Its normalised viability is 102%.

And the normalised viability (MDA-MB-453 [3])?
Its normalised viability is 109%.

What about the normalised viability (DU-4475 [4]) of the same compound?
Its normalised viability is 87.5%.

And the normalised viability (CAL-148 [5])?
The normalised viability was 108%.

What about the normalised viability (CAL-51 [6]) of the same compound?
Its normalised viability is 114%.

What does the source list for `COc1cc(Nc2ncc(F)c(Nc3ccc4c(n3)NC(=O)C(C)(C)O4)n2)cc(OC)c1OC` [R406] (1000 nM)?
normalised viability (CAL-85-1 [7]): 84.7%; normalised viability (HDQ-P1 [8]): 103%; normalised viability (MDA-MB-453 [9]): 96.4%; normalised viability (DU-4475 [10]): 105%; normalised viability (CAL-148 [11]): 97.2%; normalised viability (CAL-51 [12]): 112%

`O=C(c1ccc(OCCN2CCCCC2)cc1)c1c(-c2ccc(O)cc2)sc2cc(O)ccc12` [Raloxifene] (300 nM) was tested. Which normalised viability (CAL-85-1 [1]) did it give?
Its normalised viability is 105%.

And the normalised viability (HDQ-P1 [2])?
Its normalised viability is 84.6%.

And the normalised viability (MDA-MB-453 [3])?
The normalised viability was 102%.

What about the normalised viability (DU-4475 [4]) of the same compound?
The normalised viability was 114%.

And the normalised viability (CAL-148 [5])?
Its normalised viability is 102%.

What about the normalised viability (CAL-51 [6]) of the same compound?
The normalised viability was 100%.

For `Cn1c(=O)c(F)c(Nc2ccc(I)cc2F)c2c(=O)n(C[C@@H](O)CO)cnc21` [TAK-733] (30 nM), which normalised viability (CAL-85-1 [1]) is on record?
The normalised viability was 84.5%.

What about the normalised viability (HDQ-P1 [2]) of the same compound?
Its normalised viability is 77.7%.

And the normalised viability (MDA-MB-453 [3])?
The normalised viability was 112%.

And the normalised viability (DU-4475 [4])?
Its normalised viability is 1.81%.

And the normalised viability (CAL-148 [5])?
The normalised viability was 98.7%.

And the normalised viability (CAL-51 [6])?
Its normalised viability is 89.7%.

With `CCS(=O)(=O)c1cccc(-c2cc(C(=O)NC3CCN(C)CC3)c(C)c3[nH]c4ncc(C)cc4c23)c1` [TAK-901] (30 nM) as the compound, how does the normalised viability (CAL-85-1 [1]) read?
Its normalised viability is 79.4%.

What about the normalised viability (HDQ-P1 [2]) of the same compound?
Its normalised viability is 96.5%.

What about the normalised viability (MDA-MB-453 [3]) of the same compound?
The normalised viability was 55.5%.

What about the normalised viability (DU-4475 [4]) of the same compound?
The normalised viability was 90.6%.

What about the normalised viability (CAL-148 [5]) of the same compound?
Its normalised viability is 42.2%.

What about the normalised viability (CAL-51 [6]) of the same compound?
The normalised viability was 78.1%.

With `c1ccc(C2CN3CCSC3=N2)cc1` (stereo not given) [Tetramisole] (300 nM) as the compound, how does the normalised viability (CAL-85-1 [1]) read?
The normalised viability was 102%.

And the normalised viability (HDQ-P1 [2])?
The normalised viability was 129%.

And the normalised viability (MDA-MB-453 [3])?
The normalised viability was 103%.

What about the normalised viability (DU-4475 [4]) of the same compound?
Its normalised viability is 98.6%.

And the normalised viability (CAL-148 [5])?
Its normalised viability is 102%.

What about the normalised viability (CAL-51 [6]) of the same compound?
The normalised viability was 93.3%.

Which results are given for `c1ccc(C2CN3CCSC3=N2)cc1` (stereo not given) [Tetramisole] (1000 nM)?
normalised viability (CAL-85-1 [7]): 98.7%; normalised viability (HDQ-P1 [8]): 109%; normalised viability (MDA-MB-453 [9]): 108%; normalised viability (DU-4475 [10]): 74%; normalised viability (CAL-148 [11]): 131%; normalised viability (CAL-51 [12]): 90.2%

`CCCC(CCC)C(=O)O` [Valproic acid] (300 nM) was tested. Which normalised viability (CAL-85-1 [1]) did it give?
Its normalised viability is 90%.

And the normalised viability (HDQ-P1 [2])?
Its normalised viability is 112%.

And the normalised viability (MDA-MB-453 [3])?
Its normalised viability is 103%.

What about the normalised viability (DU-4475 [4]) of the same compound?
The normalised viability was 83.7%.

And the normalised viability (CAL-148 [5])?
Its normalised viability is 103%.

What about the normalised viability (CAL-51 [6]) of the same compound?
Its normalised viability is 103%.

What does the source list for `CCCC(CCC)C(=O)O` [Valproic acid] (1000 nM)?
normalised response (CAL-85-1 [13]): 93.9%; normalised response (HDQ-P1 [14]): 103%; normalised response (MDA-MB-453 [15]): 111%; normalised response (BT-474): 103%; normalised response (HCC1599): 31.2%; normalised response (DU-4475 [16]): 94.9%; normalised response (HCC1143): 103%; normalised response (Hs578T): 103%; normalised response (CAL-120): 99.9%; normalised response (HCC1937): 99.5%; normalised response (MDA-MB-468): 93.8%; normalised response (CAL-148 [17]): 96.2%; normalised response (CAL-51 [18]): 70.3%; normalised response (MDA-MB-436): 95.6%; normalised response (MCF-10A): 98.7%; normalised response (MFM-223): 94.5%; normalised response (MDA-MB-231): 101%; normalised response (SK-BR-3): 92.3%; normalised response (BT-549): 99.8%; normalised viability (CAL-85-1 [7]): 90.6%; normalised viability (HDQ-P1 [8]): 112%; normalised viability (MDA-MB-453 [9]): 116%; normalised viability (DU-4475 [10]): 94.8%; normalised viability (CAL-148 [11]): 88.8%; normalised viability (CAL-51 [12]): 89.1%
